Results as given in paper PMC12586182 (Frontiers in Oncology, 2025).

Assays:
Assay in all cases: Kinase panel profiling at 1 µmol/L (mobility shift assay, Carna)
Assay type in all cases: biochemical
Settings in all cases: 1 µmol/L of BTK inhibitor
CaMK2β = target: T1, CaMK2β (Homo sapiens, UniProt Q13554)
T1 construct: purchased Carna Biosciences

KDR = target: T2, KDR (Homo sapiens, UniProt P35968)
T2 construct: purchased Carna Biosciences

PAK6 = target: T3, PAK6 (Homo sapiens, UniProt Q9NQU5)
T3 construct: purchased Carna Biosciences
T3 sequence (Q9NQU5 whole entry): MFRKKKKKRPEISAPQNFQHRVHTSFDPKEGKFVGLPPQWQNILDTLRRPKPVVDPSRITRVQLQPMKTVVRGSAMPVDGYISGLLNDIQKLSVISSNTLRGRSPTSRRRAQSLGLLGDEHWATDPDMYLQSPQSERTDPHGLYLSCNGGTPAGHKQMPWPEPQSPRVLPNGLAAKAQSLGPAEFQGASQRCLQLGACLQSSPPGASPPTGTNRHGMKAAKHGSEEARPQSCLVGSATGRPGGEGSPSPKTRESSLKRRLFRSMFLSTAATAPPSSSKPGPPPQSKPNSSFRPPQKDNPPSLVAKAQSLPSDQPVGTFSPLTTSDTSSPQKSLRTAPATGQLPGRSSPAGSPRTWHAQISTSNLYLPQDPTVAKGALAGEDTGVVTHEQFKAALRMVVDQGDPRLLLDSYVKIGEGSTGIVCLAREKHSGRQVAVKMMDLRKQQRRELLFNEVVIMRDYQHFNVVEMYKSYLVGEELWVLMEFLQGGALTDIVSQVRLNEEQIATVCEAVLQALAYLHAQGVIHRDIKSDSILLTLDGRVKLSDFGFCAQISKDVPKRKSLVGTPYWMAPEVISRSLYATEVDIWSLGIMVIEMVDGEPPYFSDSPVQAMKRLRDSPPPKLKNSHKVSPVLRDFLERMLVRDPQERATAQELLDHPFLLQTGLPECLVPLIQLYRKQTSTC

CHK1 = target: T4, CHK1 (Homo sapiens, UniProt O14757)
T4 construct: purchased Carna Biosciences
T4 sequence (O14757 1-476): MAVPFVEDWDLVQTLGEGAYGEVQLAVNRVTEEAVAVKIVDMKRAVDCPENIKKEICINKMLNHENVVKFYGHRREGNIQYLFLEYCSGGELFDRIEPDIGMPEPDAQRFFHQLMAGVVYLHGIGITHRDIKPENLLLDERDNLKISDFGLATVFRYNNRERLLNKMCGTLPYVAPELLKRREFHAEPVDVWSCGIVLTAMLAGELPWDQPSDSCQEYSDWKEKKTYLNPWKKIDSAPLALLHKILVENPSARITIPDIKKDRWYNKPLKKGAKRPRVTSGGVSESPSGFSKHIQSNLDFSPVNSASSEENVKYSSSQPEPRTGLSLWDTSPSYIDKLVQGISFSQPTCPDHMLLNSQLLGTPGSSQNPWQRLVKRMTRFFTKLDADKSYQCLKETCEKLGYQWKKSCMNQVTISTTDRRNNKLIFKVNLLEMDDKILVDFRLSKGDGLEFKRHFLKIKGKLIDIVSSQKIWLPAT

CK1ε = target: T5, CK1ε (Homo sapiens, UniProt P49674)
T5 construct: purchased Carna Biosciences
T5 sequence (P49674 whole entry): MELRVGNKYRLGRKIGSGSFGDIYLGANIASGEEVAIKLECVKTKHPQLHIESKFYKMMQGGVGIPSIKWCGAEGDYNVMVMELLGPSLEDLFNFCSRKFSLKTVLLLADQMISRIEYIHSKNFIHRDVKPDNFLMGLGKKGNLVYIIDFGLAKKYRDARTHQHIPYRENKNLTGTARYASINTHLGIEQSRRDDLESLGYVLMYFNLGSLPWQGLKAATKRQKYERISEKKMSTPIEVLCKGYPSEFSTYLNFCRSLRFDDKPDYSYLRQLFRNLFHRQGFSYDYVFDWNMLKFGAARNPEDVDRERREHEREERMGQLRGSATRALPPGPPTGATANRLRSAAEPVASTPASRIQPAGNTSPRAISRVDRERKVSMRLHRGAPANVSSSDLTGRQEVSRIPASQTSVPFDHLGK

LATS2 = target: T6, LATS2 (Homo sapiens, UniProt Q9NRM7)
T6 construct: purchased Carna Biosciences
T6 sequence (Q9NRM7 1-1088): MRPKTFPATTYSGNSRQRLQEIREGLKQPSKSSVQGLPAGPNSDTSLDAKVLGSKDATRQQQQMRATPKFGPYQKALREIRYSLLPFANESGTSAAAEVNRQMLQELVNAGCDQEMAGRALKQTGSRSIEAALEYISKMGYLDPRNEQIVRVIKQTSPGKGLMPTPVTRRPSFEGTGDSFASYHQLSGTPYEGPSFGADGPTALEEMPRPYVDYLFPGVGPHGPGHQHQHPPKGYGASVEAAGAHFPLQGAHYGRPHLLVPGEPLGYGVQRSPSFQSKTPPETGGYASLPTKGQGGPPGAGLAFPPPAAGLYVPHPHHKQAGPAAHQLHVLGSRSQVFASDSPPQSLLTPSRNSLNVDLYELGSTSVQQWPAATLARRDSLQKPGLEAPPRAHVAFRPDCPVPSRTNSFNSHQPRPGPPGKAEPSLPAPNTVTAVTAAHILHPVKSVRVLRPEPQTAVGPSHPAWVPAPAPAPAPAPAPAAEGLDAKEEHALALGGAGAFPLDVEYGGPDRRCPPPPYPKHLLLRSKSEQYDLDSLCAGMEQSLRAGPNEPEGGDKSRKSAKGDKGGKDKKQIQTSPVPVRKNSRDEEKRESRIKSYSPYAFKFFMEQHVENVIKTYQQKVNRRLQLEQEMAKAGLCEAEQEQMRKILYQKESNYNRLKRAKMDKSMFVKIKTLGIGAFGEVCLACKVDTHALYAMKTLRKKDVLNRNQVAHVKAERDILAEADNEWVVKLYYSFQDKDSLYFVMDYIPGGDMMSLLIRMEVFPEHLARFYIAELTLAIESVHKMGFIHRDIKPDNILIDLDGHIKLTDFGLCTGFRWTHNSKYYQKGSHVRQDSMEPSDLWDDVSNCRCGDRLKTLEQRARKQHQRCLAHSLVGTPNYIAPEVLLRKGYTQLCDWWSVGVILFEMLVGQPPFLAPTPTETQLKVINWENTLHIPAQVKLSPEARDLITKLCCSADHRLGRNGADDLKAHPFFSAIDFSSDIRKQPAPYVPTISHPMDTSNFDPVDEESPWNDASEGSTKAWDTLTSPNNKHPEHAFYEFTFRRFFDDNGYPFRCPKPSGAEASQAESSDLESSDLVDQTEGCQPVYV

PKCγ = target: T7, PKCγ (Homo sapiens, UniProt P05129)
T7 construct: purchased Carna Biosciences

AXL = target: T8, AXL (Homo sapiens, UniProt P30530)
T8 construct: purchased Carna Biosciences
T8 sequence (P30530 26-894): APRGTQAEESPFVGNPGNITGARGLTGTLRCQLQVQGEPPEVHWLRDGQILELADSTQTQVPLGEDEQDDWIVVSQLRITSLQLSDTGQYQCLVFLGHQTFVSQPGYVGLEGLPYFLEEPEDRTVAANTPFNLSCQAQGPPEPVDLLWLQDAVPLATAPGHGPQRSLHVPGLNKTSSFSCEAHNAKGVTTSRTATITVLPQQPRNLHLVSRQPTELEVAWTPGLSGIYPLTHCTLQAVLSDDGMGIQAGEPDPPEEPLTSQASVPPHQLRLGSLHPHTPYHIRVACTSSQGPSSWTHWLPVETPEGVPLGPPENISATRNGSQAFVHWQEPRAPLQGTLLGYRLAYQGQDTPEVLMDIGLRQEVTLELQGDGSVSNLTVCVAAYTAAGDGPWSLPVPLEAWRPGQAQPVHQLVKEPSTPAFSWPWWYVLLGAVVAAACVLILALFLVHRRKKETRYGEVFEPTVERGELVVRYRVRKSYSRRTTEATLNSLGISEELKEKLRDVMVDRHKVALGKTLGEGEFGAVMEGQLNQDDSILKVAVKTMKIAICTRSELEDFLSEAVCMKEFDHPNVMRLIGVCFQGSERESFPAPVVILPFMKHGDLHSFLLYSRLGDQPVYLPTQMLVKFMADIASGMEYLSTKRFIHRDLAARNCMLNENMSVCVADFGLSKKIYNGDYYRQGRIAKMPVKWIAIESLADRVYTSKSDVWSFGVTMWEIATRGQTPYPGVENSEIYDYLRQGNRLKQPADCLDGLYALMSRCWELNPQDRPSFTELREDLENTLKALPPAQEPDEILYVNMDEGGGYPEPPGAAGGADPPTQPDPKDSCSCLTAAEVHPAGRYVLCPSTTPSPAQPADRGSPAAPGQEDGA

ARG = target: T9, ARG (Homo sapiens, UniProt P42684)
T9 construct: purchased Carna Biosciences
T9 sequence (P42684 whole entry): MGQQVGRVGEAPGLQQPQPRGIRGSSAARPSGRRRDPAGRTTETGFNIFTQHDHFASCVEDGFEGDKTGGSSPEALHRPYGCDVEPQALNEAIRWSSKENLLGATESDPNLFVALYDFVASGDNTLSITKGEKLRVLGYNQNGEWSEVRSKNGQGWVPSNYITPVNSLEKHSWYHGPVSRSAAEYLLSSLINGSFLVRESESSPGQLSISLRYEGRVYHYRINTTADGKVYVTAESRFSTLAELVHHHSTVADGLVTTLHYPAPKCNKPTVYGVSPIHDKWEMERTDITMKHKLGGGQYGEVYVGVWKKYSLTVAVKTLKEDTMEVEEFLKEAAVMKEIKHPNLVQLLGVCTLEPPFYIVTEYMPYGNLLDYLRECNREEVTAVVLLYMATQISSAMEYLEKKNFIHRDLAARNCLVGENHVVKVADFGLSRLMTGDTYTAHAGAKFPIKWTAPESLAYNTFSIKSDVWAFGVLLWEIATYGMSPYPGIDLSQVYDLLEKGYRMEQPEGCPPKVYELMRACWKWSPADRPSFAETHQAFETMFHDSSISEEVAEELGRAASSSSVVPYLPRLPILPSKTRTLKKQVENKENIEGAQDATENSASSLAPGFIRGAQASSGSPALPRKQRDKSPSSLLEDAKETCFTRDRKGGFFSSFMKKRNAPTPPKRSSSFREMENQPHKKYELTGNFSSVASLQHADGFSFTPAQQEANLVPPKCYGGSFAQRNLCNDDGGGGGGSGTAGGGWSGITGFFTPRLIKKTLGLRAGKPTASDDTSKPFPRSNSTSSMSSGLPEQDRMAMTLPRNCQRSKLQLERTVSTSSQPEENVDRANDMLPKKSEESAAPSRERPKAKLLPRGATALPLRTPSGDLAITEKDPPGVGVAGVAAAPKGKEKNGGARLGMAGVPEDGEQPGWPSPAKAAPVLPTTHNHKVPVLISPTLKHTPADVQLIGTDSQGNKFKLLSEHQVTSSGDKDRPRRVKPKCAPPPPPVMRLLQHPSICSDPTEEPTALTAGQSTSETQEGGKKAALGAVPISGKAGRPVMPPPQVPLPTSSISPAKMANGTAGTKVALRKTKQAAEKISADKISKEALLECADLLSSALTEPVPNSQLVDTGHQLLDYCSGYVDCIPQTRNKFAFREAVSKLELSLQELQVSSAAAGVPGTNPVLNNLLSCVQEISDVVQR

PASK = target: T10, PASK (Homo sapiens, UniProt Q96RG2)
T10 construct: purchased Carna Biosciences
T10 sequence (Q96RG2 whole entry): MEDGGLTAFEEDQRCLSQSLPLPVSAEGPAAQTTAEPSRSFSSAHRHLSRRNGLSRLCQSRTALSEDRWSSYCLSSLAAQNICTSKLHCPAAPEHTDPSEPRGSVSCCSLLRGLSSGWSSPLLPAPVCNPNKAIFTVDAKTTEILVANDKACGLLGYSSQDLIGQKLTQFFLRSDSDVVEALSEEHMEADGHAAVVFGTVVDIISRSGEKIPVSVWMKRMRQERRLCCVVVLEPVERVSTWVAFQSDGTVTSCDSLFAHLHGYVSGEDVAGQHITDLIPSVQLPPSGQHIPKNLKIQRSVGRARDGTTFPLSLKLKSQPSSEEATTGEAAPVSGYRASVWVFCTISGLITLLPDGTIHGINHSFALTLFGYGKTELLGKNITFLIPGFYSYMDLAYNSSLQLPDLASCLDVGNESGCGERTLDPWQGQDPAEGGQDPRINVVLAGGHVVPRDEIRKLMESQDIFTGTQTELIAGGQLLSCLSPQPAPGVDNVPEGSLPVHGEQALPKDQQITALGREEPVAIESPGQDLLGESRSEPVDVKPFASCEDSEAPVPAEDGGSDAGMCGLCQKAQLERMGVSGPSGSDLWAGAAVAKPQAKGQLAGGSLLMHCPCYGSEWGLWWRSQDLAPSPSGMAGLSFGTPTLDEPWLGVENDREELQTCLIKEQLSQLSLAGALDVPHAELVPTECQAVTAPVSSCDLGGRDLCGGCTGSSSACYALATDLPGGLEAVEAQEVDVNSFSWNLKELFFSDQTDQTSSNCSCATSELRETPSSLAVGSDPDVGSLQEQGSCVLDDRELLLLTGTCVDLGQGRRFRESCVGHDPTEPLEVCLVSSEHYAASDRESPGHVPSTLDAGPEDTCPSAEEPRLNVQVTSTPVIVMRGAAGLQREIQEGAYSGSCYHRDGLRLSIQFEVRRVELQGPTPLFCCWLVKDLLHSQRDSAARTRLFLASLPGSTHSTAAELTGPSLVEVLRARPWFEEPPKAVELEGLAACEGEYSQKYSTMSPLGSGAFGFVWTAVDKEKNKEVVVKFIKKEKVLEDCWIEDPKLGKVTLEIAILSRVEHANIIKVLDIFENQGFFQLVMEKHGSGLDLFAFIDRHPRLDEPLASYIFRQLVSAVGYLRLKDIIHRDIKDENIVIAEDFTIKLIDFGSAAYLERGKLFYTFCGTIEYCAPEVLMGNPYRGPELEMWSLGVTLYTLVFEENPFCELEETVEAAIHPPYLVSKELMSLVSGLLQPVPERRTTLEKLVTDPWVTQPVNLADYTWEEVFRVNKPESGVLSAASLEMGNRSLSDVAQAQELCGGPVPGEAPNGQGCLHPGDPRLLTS

T1 sequence (Q13554 whole entry): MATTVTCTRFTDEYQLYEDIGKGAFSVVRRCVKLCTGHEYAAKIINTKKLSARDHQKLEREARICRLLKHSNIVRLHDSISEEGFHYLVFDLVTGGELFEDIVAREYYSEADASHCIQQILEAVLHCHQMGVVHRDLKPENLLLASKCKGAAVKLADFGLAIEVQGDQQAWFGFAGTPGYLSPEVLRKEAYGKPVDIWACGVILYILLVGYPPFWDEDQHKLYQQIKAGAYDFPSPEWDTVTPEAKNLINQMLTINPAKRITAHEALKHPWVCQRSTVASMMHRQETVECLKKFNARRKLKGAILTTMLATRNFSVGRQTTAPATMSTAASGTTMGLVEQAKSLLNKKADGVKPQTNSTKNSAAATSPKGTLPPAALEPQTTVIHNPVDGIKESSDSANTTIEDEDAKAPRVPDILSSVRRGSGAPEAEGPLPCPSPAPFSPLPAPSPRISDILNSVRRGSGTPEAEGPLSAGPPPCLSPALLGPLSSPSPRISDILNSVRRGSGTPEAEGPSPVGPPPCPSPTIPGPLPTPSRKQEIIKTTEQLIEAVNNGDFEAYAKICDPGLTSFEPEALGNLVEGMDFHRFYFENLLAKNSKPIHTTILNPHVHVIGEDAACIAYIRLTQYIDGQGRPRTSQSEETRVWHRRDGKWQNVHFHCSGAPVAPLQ

Row | SMILES | Percentage inhibition of kinase enzyme activity (CaMK2β) [%] | Percentage inhibition of kinase enzyme activity (KDR) [%] | Percentage inhibition of kinase enzyme activity (PAK6) [%] | Percentage inhibition of kinase enzyme activity (CHK1) [%] | Percentage inhibition of kinase enzyme activity (CK1ε) [%] | Percentage inhibition of kinase enzyme activity (LATS2) [%] | Percentage inhibition of kinase enzyme activity (PKCγ) [%] | Percentage inhibition of kinase enzyme activity (AXL) [%] | Percentage inhibition of kinase enzyme activity (ARG) [%] | Percentage inhibition of kinase enzyme activity (PASK) [%]
1 | CC#CC(=O)N1CCC[C@H]1c1nc(-c2ccc(C(=O)Nc3ccccn3)cc2)c2c(N)nccn12 [acalabrutinib] | -1.09 | 6.81 | -8.74 | -6.98 | -10.49 | -7.45 | -7.43 | -0.46 | 3.53 | -5.37
2 | C=CC(=O)N1CCC[C@@H](n2nc(-c3ccc(Oc4ccccc4)cc3)c3c(N)ncnc32)C1 [ibrutinib] | -2.56 | 83.54 | 8.60 | 10.13 | 49.55 | 5.45 | 0.80 | 8.97 | 6.86 | -0.0437
3 | O=C(c1ccc(Oc2ccccc2)cc1Cl)c1c[nH]c2ncnc(N[C@@H]3CC[C@@H](CO)OC3)c12 [nemtabrutinib] | 2.18 | 80.64 | 64.72 | 12.30 | 95.45 | 70.96 | 0.06 | 84.52 | 62.68 | 21.76
4 | COc1ccc(F)cc1C(=O)NCc1ccc(-c2nn([C@@H](C)C(F)(F)F)c(N)c2C(N)=O)cc1 [pirtobrutinib] | -2.89 | -1.66 | 4.12 | 8.67 | 15.87 | 2.57 | 3.04 | -1.48 | -0.47 | 3.07
5 | C=CC(=O)N1CCC([C@@H]2CCNc3c(C(N)=O)c(-c4ccc(Oc5ccccc5)cc4)nn32)CC1 [zanubrutinib] |  | -4.47 |  |  |  |  |  |  |  | 
